According to article PMC10096123, “14-Substituted Diquinothiazines as a New Group of Anticancer Agents” (Molecules, 2023):
“Also recorded” adds a separate entry of the source.

How the values were obtained:
BEAS-2B cells = test: 72-h MTT viability assay, normal lung epithelial BEAS-2B; assay type: cell-based, human; details: 72 h incubation, mean of 3 experiments +/-SD, no effect = viability (SF) similar to control, about 100%; for IC50: Homo sapiens, BEAS-2B
Description: (§1) The IC50 for cell viability was described with a dose of the drug, with a 50% reduction in the whole population, when compared to the untreated controls. The obtained results allow for a comparison of different compounds, using the same or different targeted cell lines. Cell survival fractions (SF), followed by the MTT 72-h viability assay for the HCT116 and SH-5YSY cells, are presented in the Supplementary File (Figure S1).
(§2) For cytological studies, human cancer cell lines were chosen, with special emphasis on the colorectal, HCT116, and neuroblastoma SH-5YSY cell lines, as well as lung normal epithelial BEAS-2B and cancer H1299 and A549 cancer cell lines (all obtained from the ATTC collection; Manassas, VA, USA). The cells were harvested under the standard conditions in incubator (5% CO2, 37 °C and 60% humidity; Panasonic model MCO-19 AIC). Cells were cultured in T75 mL sterile bottles (Sartedt), using DMEM-F12 medium (Merck, Poznań, Poland) supplemented with 10% of Fetal Bovine Serum (EURx, Gdańsk, Poland). During the experimental procedure, each cell line wasn’t more than 60–80% confluenced, no older than maximal number of passages 30. For adherent cell passages, the enzyme trypsin working solution, prepared in sodium phosphate buffer saline (PBS, pH = 7.4; PAN-Biotech Gmbh, Aidenbach, Germany), was used. The tested compounds were prepared as […] stocks in 100% DMSO (Merck, Poznań, Poland), and were stored at −20 °C. Before use in cytological studies, the working solution of each compound was prepared directly in complete DMEM-F12 medium. A positive-control, anticancer drug, etoposide (Merck, Poznań, Poland), was dissolved and prepared as solutions with doses of 20, 10, 5, 2.5, 1.25, 0.63 µM (0 µM for control, untreated cells in DMEM-F12 without any tested compound additions), respectively.
(§3) HCT116 and SH-5YSY cells collected after trypsinization were counted under the Bürker’s chamber, and 2000 or 5000 cells were seeded on each well of the 96-well-format sterile plate (Sarstedt, Nümbrecht, Germany), in 100 µL of complete DMEM-F12 medium, respectively. Twenty-four hours before compound addition, the cells were monitored directly on plates; only well-attached cells were used for treatments with background controls (DMSO with final maximal concentration of 1%) and untreated controls. The normal lung (BEAS-2B) and cancer (H1299 and […]) cell lines were cultured and prepared for viability MTT assay in similar way. To treat wells, 100 µL of tested compounds in fresh medium were added at concentration range of 100, 50, 25, 12.5, 6.25, 3.13 µM (0 µM for control, untreated cells in DMEM-F12 without any tested compound additions). An etoposide as a positive control, as anticancer drug, was prepared in similar way. Followed by 72 h of incubation, the viability assay was performed according to the producer protocol (Promega, Madison, WI, USA), where the medium and compounds were removed and cells were washed with PBS solution. A yellow tetrazolium salt (3-(4,5-dimethylthiazol-2-yl)-2,5-diphenyltetrazolium bromide solution (0.5 mg/mL) in serum and phenol red-free DMEM (Merck, Poznań, Poland) was added to each well on plates at a volume of 50 µL for 2–3 h of darkness, at 37 °C incubation. The purple formazan crystals were produced only by the viable cells, containing NAD (P)H-dependent oxidoreductase enzymes, which reduce the MTT. The crystals were dissolved in acidic (0.04 M HCl) 2-propanolol solution (Merck, Poznań, Poland) after addition of 75 µL of dissolving mixture to each well on plates for 5–10 min in darkness and at room-temperature (RT) incubation. The absorption at 570 nm was measured directly using multiplate reader (Epoch, BioTek, Winooski, VT, USA). Each time, the biological experiments were repeated three times.
(§4) Obtained absorbance was analyzed for proliferation and survival fraction (SF) assessments, where tested samples were compared to the untreated controls (100%). […]

H1299 cells = test: 72-h MTT viability assay, H1299; assay type: cell-based, human; details: 72 h incubation, mean of 3 experiments +/-SD
Description: as §1, §2, §3, §4

SH-SY5Y cells = test: 72-h MTT viability assay, SH-SY5Y; assay type: cell-based, human; details: 72 h incubation, mean of 3 experiments +/-SD, no effect = viability (SF) similar to control, about 100%; for IC50: Homo sapiens, SH-SY5Y
Description: as §1, §2, §3, §4

HCT116 cells = test: 72-h MTT viability assay, HCT116; assay type: cell-based, human; details: 72 h incubation, mean of 3 experiments +/-SD
Description: as §1, §2, §3, §4

A549 cells = test: 72-h MTT viability assay, A549; assay type: cell-based, human; details: 72 h incubation, mean of 3 experiments +/-SD
Description: as §1, §2, §3, §4

[1] = tested on: HCT116, SH-SY5Y, A549, H1299 cell lines; test: 72-h MTT viability assay, all cell lines used in the study (summary statements); assay type: cell-based, human; details: for anticancer activity (ranking within the series): HCT116 and SH-SY5Y, in words
Description: as §1, §2
HCT116 and SH-5YSY cells collected after trypsinization were counted under the Bürker’s chamber, and 2000 or 5000 cells were seeded on each well of the 96-well-format sterile plate (Sarstedt, Nümbrecht, Germany), in 100 µL of complete DMEM-F12 medium, respectively. Twenty-four hours before compound addition, the cells were monitored directly on plates; only well-attached cells were used for treatments with background controls (DMSO with final maximal concentration of 1%) and untreated controls. The normal lung (BEAS-2B) and cancer (H1299 and […]) cell lines were cultured and prepared for viability MTT assay in similar way. […] The absorption at 570 nm was measured directly using multiplate reader (Epoch, BioTek, Winooski, VT, USA). […]
as §4

| Structure (SMILES) | IC50 (H1299 cells; Homo sapiens, NCI-H1299, 72 h) | IC50 (SH-SY5Y cells) | IC50 (HCT116 cells; Homo sapiens, HCT-116, 72 h) | IC50 (A549 cells; Homo sapiens, A549, 72 h) | IC50 SH-SY5Y (SH-SY5Y cells) | melting point | IC50 (HCT116 cells) | IC50 ([1]; Homo sapiens, range over the cancer cell lines, read-out: IC50 values against all cell lines used in the study) | IC50 (H1299 cells) | IC50 (A549 cells) | IC50 (A549 cells; listed as etopiside) | IC50 (BEAS-2B cells) | IC50 BEAS-2B (BEAS-2B cells) | anticancer activity (ranking within the series) [1] |
| --- | --- | --- | --- | --- | --- | --- | --- | --- | --- | --- | --- | --- | --- | --- |
| c1ccc2c3c(cnc2c1)Sc1cnc2ccccc2c1N3CCN1CCCC1 [Compound 2a, 14-(pyrrolidinylethyl)diquinothiazine] | 8.1 ± 1.83 µM | 6.5 ± 1.22 µM | 11.1 ± 3.39 µM | 13.3 ± 2.23 µM | – | – | – | – | – | – | – | 84.5 ± 11.1 µM | – | – |
| O=C1CCCN1CCCN1c2c(cnc3ccccc23)Sc2cnc3ccccc3c21 [Compound 2b, 14-(pyrrolidinonylpropyl)diquinothiazine] | 5.3 ± 1.04 µM | 7.7 ± 2.59 µM | 9.4 ± 4.41 µM | 12.4 ± 2.25 µM | – | – | – | – | – | – | – | 83.5 ± 12.3 µM | – | – |
| c1ccc2c3c(cnc2c1)Sc1cnc2ccccc2c1N3CCN1CCCCC1 [Compound 2c] | 7.5 ± 1.97 µM | 14.3 ± 1.49 µM | – | 14.7 ± 2.81 µM | – | – | – | – | – | – | – | – | no effect | – |
| c1ccc2c3c(cnc2c1)Sc1cnc2ccccc2c1N3CCN1CCOCC1 [Compound 2d] | 8.9 ± 1.02 µM | 13.5 ± 2.69 µM | 23.1 ± 1.37 µM | 20.7 ± 2.25 µM | – | – | – | – | – | – | – | 118 ± 18.4 µM | – | – |
| c1ccc2c3c(cnc2c1)Sc1cnc2ccccc2c1N3CCN1CCNCC1 [Compound 2e, 14-(piperazinyloethyl)dichinotiazyny] | 7 ± 1.85 µM | 4.9 ± 0.87 µM | 10.3 ± 1.82 µM | 10.1 ± 2.26 µM | – | – | – | – | – | – | – | 26.5 ± 1.85 µM | – | – |
| CCN(CC)CCN1c2c(cnc3ccccc23)Sc2cnc3ccccc3c21 [Compound 2f] | 22.2 ± 3.83 µM | – | 16.9 ± 1.73 µM | 27.9 ± 2.07 µM | inactive; also recorded: no effect | – | – | – | – | – | – | 122 ± 12 µM | – | – |
| CN(C)CCCN1c2c(cnc3ccccc23)Sc2cnc3ccccc3c21 [Compound 2g] | 24.5 ± 1.91 µM | – | 13.1 ± 1.82 µM | 31.5 ± 2.36 µM | inactive; also recorded: no effect | – | – | – | – | – | – | – | no effect | – |
| N#Cc1ccc(N2c3c(cnc4ccccc34)Sc3cnc4ccccc4c32)cc1 [Compound 3a, 14-(4-cyanophenyl)diquinothiazine] | 3.7 ± 0.91 µM | – | < 8.6 µM | 84.9 ± 12.1 µM | inactive; also recorded: no effect | > 300 °C | 4.9 ± 1.97 µM | – | – | – | – | – | no effect | – |
| FC(F)(F)c1ccc(N2c3c(cnc4ccccc34)Sc3cnc4ccccc4c32)cc1 [Compound 3b, 14-(4-trifluoromethylphenyl)diquinothiazine] | 14.6 ± 1.92 µM | – | 17.1 ± 4.81 µM | 42.5 ± 16.5 µM | inactive; also recorded: no effect | 292 to 293 °C | – | – | – | – | – | 86.1 ± 11 µM | – | – |
| CSc1ccc(N2c3c(cnc4ccccc34)Sc3cnc4ccccc4c32)cc1 [Compound 3c, 14-(methylthiophenyl)diquinothiazine] | 2.7 µM | 2.7 ± 0.21 µM | – | 17.2 ± 1.02 µM | – | 262 to 263 °C | – | 1.6 to 17.2 µM | 1.6 ± 0.86 µM | – | – | 69 ± 4.89 µM | low cytotoxicity | strongest anticancer activity |
| COc1cc([C@@H]2c3cc4c(cc3[C@@H](O[C@@H]3O[C@@H]5CO[C@@H](C)O[C@H]5[C@H](O)[C@H]3O)[C@H]3COC(=O)[C@H]23)OCO4)cc(OC)c1O [etoposide, reference compound] | 0.6 ± 0.16 µM | 3.9 ± 0.76 µM | 8.6 ± 1.42 µM | – | – | – | – | – | – | 4.48 ± 0.21 µM | 44.8 µM | 0.00311 ± 0.0002 µM | – | – |

The next lines start with results.

| IC50 (H1299 cells; Homo sapiens, NCI-H1299, 72 h) | IC50 (SH-SY5Y cells) | IC50 (HCT116 cells; Homo sapiens, HCT-116, 72 h) | IC50 (A549 cells; Homo sapiens, A549, 72 h) | IC50 SH-SY5Y (SH-SY5Y cells) | melting point | IC50 (HCT116 cells) | IC50 ([1]; Homo sapiens, range over the cancer cell lines, read-out: IC50 values against all cell lines used in the study) | IC50 (H1299 cells) | IC50 (A549 cells) | IC50 (A549 cells; listed as etopiside) | Structure (SMILES) | IC50 (BEAS-2B cells) | IC50 BEAS-2B (BEAS-2B cells) | anticancer activity (ranking within the series) [1] |
| --- | --- | --- | --- | --- | --- | --- | --- | --- | --- | --- | --- | --- | --- | --- |
| 26.2 ± 1.99 µM | 24.7 ± 5.44 µM | 25.9 ± 4.87 µM | 71.1 ± 14.7 µM | – | 89 to 90 °C | – | – | – | – | – | CC(=O)NCCN1c2c(cnc3ccccc23)Sc2cnc3ccccc3c21 [Compound 5a, 14-acetylaminoethyldiquinothiazine] | 108 ± 9.83 µM | – | lowest anticancer activity |
| 23.5 ± 1.97 µM | 21.4 ± 4.02 µM | 17.7 ± 1.53 µM | 56.5 ± 15.6 µM | – | 171 to 172 °C | – | – | – | – | – | CC(=O)NCCCN1c2c(cnc3ccccc23)Sc2cnc3ccccc3c21 [Compound 5b, 14-acetylaminopropyldiquinothiazine] | 86.9 ± 9.67 µM | – | – |
| 30.3 ± 1.57 µM | 21.9 ± 4.31 µM | 26.5 ± 1.15 µM | 49.3 ± 15.9 µM | – | 68 to 69 °C | – | – | – | – | – | CC(=O)NCCCCN1c2c(cnc3ccccc23)Sc2cnc3ccccc3c21 [Compound 5c, 14-acetylaminobutyldiquinothiazine] | – | no effect | lowest anticancer activity |
| 36.9 ± 6.06 µM | – | 20.2 ± 1.01 µM | 65.4 ± 14.1 µM | inactive; also recorded: no effect | 229 to 230 °C | – | – | – | – | – | CS(=O)(=O)NCCN1c2c(cnc3ccccc23)Sc2cnc3ccccc3c21 [Compound 6a, 14-methanesulfonylaminoethyldiquinothiazine] | – | no effect | – |
| 25.9 ± 4.14 µM | – | 15.6 ± 1.16 µM | 45.2 ± 17.2 µM | inactive; also recorded: no effect | 199 to 200 °C | – | – | – | – | – | CS(=O)(=O)NCCCN1c2c(cnc3ccccc23)Sc2cnc3ccccc3c21 [Compound 6b, 14-methanesulfonylaminopropyldiquinothiazine] | – | no effect | – |
| 13.4 ± 1.68 µM | 21.6 ± 7.64 µM | 17.6 ± 1.85 µM | 36.9 ± 16.8 µM | – | 184 to 186 °C | – | – | – | – | – | CS(=O)(=O)NCCCCN1c2c(cnc3ccccc23)Sc2cnc3ccccc3c21 [Compound 6c, 14-methanesulfonylaminobutyldiquinothiazine] | – | no effect | – |
| 67.2 ± 9.64 µM | – | 5.8 ± 0.63 µM | 18 ± 3.09 µM | inactive; also recorded: no effect | – | – | – | – | – | – | c1ccc2c3c(cnc2c1)Sc1cnc2ccccc2c1N3 [Compound M0] | – | no effect | – |
